According to patent US20200045954A1, “NOVEL COMPOSITION FOR ORGAN PRESERVATION” (priority 2018, published 2020):
Non-standard residues stand in square brackets, D forms with d. No end group written: not given here.

Experiments:
[1] = tested on: isolated perfused rat hearts; experiment: Cardiac function of isolated perfused rat hearts (modified Langendorff) subjected to global I(30 min)/R(45 min); details: for blocking of the cardio-protective effects of tri-peptide: opioid antagonist 5 μM given with tri-peptide 50 μM
[2] = tested on: isolated perfused rat hearts; experiment: Infarct size by TTC staining of isolated perfused rat hearts after I(30 min)/R(45 min)
[3] = Ventilator induced diaphragmatic dysfunction
[4] = compared to untreated control I/R hearts, tri-peptide 50 μM
[5] = final value, 45 min reperfusion
[6] = initial (baseline) value, mean ± S.E.M.

Compound	blocking of the cardio-protective effects of tri-peptide [1]	post-reperfused cardiac function [1, 4]	Final +dP/dtmax [1, 5]	Final Coronary How [1, 5]	Final Heart Rate [1, 5]	Final LVEDP [1, 5]	Final LVESP [1, 5]	Final −dP/dtmin [1, 5]	Final LVDP ([1]; final value, 45 min reperfusion, LVDP=LVESP−LVEDP)	Initial +dP/dtmax ([1]; initial (baseline) value)	Initial Coronary Flow ([1]; initial (baseline) value)	Initial Heart Rate ([1]; initial (baseline) value)	Initial LVDP ([1]; initial (baseline) value, LVDP=LVESP−LVEDP)	Initial LVEDP [1, 6]	Initial LVESP [1, 6]	infarct size ([2]; TTC staining after I(30 min)/R(45 min))	infarct size [2, 4]	ventilator induced diaphragmatic dysfunction [3]
Oc1ccc2c3c1O[C@H]1c4[nH]c5ccccc5c4C[C@@]4(O)[C@@H](C2)N(CC2CC2)CC[C@]314 [NALD, naltrindole, reference compound]	not	–	–	–	–	–	–	–	–	–	–	–	–	–	–	–	–	–
Phe-[dR]-Phe-NH2 [tri-peptide]	–	significantly restored	1126.8 ± 177.2 mmHg/s	9.6 ± 1.5 mL/min	276.3 ± 12.6 BPM	50.1 ± 7.4 mmHg	105.6 ± 6.1 mmHg	965.5 ± 112.1 mmHg/s	55.5 ± 6.0 mmHg	2376.7 ± 75.1 mmHg/s	17.7 ± 0.9 mL/min	287.8 ± 8.1 BPM	94.2 ± 2.7 mmHg	6.7 ± 0.8 mmHg	100.9 ± 3.1 mmHg	26 ± 1%	reduced infarct size	attenuate
Oc1ccc2c3c1O[C@H]1c4[nH]c5c(c4C[C@@]4(O)[C@@H](C2)N(CC2CC2)CC[C@]314)C[C@@]1(O)[C@H]2Cc3ccc(O)c4c3[C@@]1(CCN2CC1CC1)[C@H]5O4 [BNI, nor-Binaltorphimine, reference compound]	blocked	–	–	–	–	–	–	–	–	–	–	–	–	–	–	–	–	–
